{"source": "patent US4775758A", "about": "“Phospholipids” (Takeda Chemical Industries, Ltd., priority 1983, dated 1988)", "key": {"[1]": {"system": "sarcoma 180 cells", "assay": "Antitumor activity (simultaneous administration), intraperitoneal sarcoma 180, life span", "type": "in vivo, ICR mice", "settings": "for rate of life prolongation against the control group: 1 mg/mouse i.p. after i.p. transplantation of 1×10^5 sarcoma 180 cells, ICR mice", "experimental": "Antitumor activity (simultaneous administration) of 1,3-dioctyloxypropane-2-yl 2-trimethylammonioethyl phosphate (Example 1)\nSarcoma 180 cells (1×10^5 cells per mouse) was transplanted intraperitoneally to ICR mice (a group consisting of 5 mice). Subsequently, the compound of Example 1 (1 mg/mouse) was dissolved in physiological saline, and administered intraperitoneally to each of the mice. In the group given the drug compound, two mice survived 60 days, and the rate of life prolongation against the control group not given the drug compound was 458."}, "[2]": {"system": "sarcoma 180 cells", "assay": "Antitumor activity (pre-administration), intraperitoneal sarcoma 180, life span", "type": "in vivo", "settings": "1 mg/mouse i.p., 4 days before i.p. transplantation of 1×10^5 sarcoma 180 cells; ICR mice", "experimental": "Antitumor activity (pre-administration) of 1,3-dioctyloxypropane-2-yl 2-trimethylammonioethyl phosphate (Example 1)\nA 1 mg/mouse of the compound of Example 1 was admixed with physiological saline, and administered intraperitoneally to ICR mice (a group consisting of 5 mice). Four days later, 1×10^5 sarcoma 180 cells per mouse was transplanted intraperitoneally to each of the mice."}, "[3]": {"system": "sarcoma 180 cells", "assay": "Antitumor activity, subcutaneous sarcoma 180, intraperitoneal administration, tumor weight", "type": "in vivo", "settings": "0.2 mg/mouse i.p., 13 times, 2nd to 20th day; tumor weight on 21st day; sarcoma 180 s.c., ICR mice", "experimental": "(§1) Antitumor activity of 1,3-dioctyloxypropane-2-yl 2-trimethylammonioethyl phosphate (Example 1)\nSarcoma 180 cells (1×10^6 cells) were transplanted subcutaneously to each of ICR mice (a group consisting of 5 mice). The compound of Example 1 was administered intraperitoneally to the mice at the single dose rate of 0.2 mg/mouse 13 times over the period of from the 2nd day to the 20th day. On the 21th day, the mice were anatomized, and the weight of tumors was measured."}, "[4]": {"system": "sarcoma 180 cells", "assay": "Antitumor activity, subcutaneous sarcoma 180, intravenous administration, tumor weight", "type": "in vivo", "settings": "0.06 mg/mouse i.v., 9 times, 7th to 20th day; tumor weight on 21st day; sarcoma 180 s.c., ICR mice", "experimental": "as §1\nSarcoma 180 cells (1×10^6 cells) were transplanted subcutaneously to each of ICR mice (a group consisting of 5 mice). The compound of Example 1 was injected intravenously to the mice at the single dose rate of 0.06 mg/mouse 9 times over the period of from the 7th day after the transplantation to the 20th day. On the 21th day, the mice were anatomized, and the weight of tumors was measured."}, "[5]": {"system": "Piricularia oryzae", "assay": "microbe, parasite or virus in culture", "type": "cell-based"}, "[6]": {"system": "Botrytis cinerea", "assay": "Antifungal action, MIC by serial dilution technique", "type": "cell-based", "settings": "1% glucose bouillon agar", "experimental": "(§2) Antifungal action of 1,3-dioctyloxypropane-2-yl 2-trimethylammonioethyl phosphate (Example 1)\n(§3) Using typical fungi, the minimal inhibition concentrations (MIC) were determined with the compound of Example 1 by the serial dilution technique on a 1% glucose bouillon agar culture medium."}, "[7]": {"system": "Cercospora beticola", "assay": "Antifungal action, MIC by serial dilution technique", "type": "cell-based", "settings": "1% glucose bouillon agar", "experimental": "as §2, §3"}, "[8]": {"system": "Cladosporium herbarum", "assay": "Antifungal action, MIC by serial dilution technique", "type": "cell-based", "settings": "1% glucose bouillon agar", "experimental": "as §2, §3"}, "[9]": {"system": "Diaporthe citri", "assay": "Antifungal action, MIC by serial dilution technique", "type": "cell-based", "settings": "1% glucose bouillon agar", "experimental": "as §2, §3"}, "[10]": {"system": "Elsinoe fawcetti", "assay": "Antifungal action, MIC by serial dilution technique", "type": "cell-based", "settings": "1% glucose bouillon agar", "experimental": "as §2, §3"}, "[11]": {"system": "Helminthosporium oryzae", "assay": "Antifungal action, MIC by serial dilution technique", "type": "cell-based", "settings": "Bipolaris oryzae"}, "[12]": {"system": "Penicilium citrinum", "assay": "Antifungal action, MIC by serial dilution technique", "type": "cell-based", "settings": "1% glucose bouillon agar"}, "[13]": {"system": "Mucor spinescens", "assay": "Antifungal action, MIC by serial dilution technique", "type": "cell-based", "settings": "1% glucose bouillon agar"}, "[14]": {"system": "Saccharomyces cerevisiae", "assay": "Antifungal action, MIC by serial dilution technique", "type": "cell-based", "settings": "1% glucose bouillon agar"}, "[15]": {"system": "P 388 leukemia cells", "assay": "Antitumor activity, P 388 leukemia cells mixed with compound and transplanted subcutaneously, tumor weight", "type": "in vivo", "settings": "1×10^6 P 388 cells mixed with 0.1 g of compound, s.c., CDF1 mice; tumor weight on 10th day", "text": "Antitumor activity of 1,3-dioctyloxypropane-2-yl 2-thiazolioethyl phosphate (Example 3)\nP 388 leukemia cells (1×10^6 cells) were mixed with 0.1 g of the compound of Example 3, and transplanted subcutaneously to each of CDF1 mice (a group consisting of 5 mice)."}, "[16]": {"system": "Meth A cells", "assay": "Antitumor activity, subcutaneous Meth A, administration on the transplanted portion, tumor weight", "type": "in vivo", "settings": "0.25 mg/mouse on the transplanted portion once a day for 4 days; Meth A s.c., CDF1 mice; ten days later", "experimental": "Antitumor activity of 1,3-dinonyloxypropane-2-yl 2-trimethylammonioethyl phosphate (Example 9)\nMeth A cells (1×10^6 cells per mouse) were transplanted subcutaneously to CDF1 mice (a group consisting of 5 mice). On the other hand, a solution of 0.25 mg/mouse of the compound of Example 9 in 0.05 ml of physilogical saline was given to each of the mice on the portion transplanted with the cells once a day for 4 consecutive days from the 1st day following the transplantation. Ten days later, the tumor tissues were removed, and the weight of tumors was measured."}, "[17]": {"system": "sarcoma 180 cells", "assay": "Antitumor activity, intraperitoneal sarcoma 180, three administrations, life span", "type": "in vivo, ICR mice", "text": "ICR mice (5 animals per group) were intraperitoneally inoculated with 1×10^5 sarcoma 180 cells per mouse. […] The life span prolonging ratio as compared with the control (no drug treatment) group was 198, and 1 animal survived on day 60."}, "[18]": {"system": "MM46 cells", "assay": "Antitumor activity, intraperitoneal MM46, administration before and after inoculation, survival", "type": "in vivo", "settings": "5 animals per group; 0.25 mg/mouse i.p., 4 days before and 4 days after 1×10^4 MM46 cells i.p.; C3H/He mice; controls all died within 19 days", "experimental": "Antitumor activity of the compound of Example 9\nThe compound of Example 9 was intraperitoneally administered to C3H/He mice (5 animals per group) in a dose of 0.25 mg/mouse for 4 consecutive days.\nOn the 5th day, 1×10^4 MM46 cells were intraperitoneally inoculated into each mouse, and the compound of Example 9 was again administered intraperitoneally to the mice in a dose of 0.25 mg/mouse for 4 days starting from day 1 after inoculation.\nThe mice in the control group all died within 19 days after tumor implantation, whereas, in the drug-treated group, 3 animals survived on day 60."}, "[19]": {"system": "sarcoma 180 cells", "assay": "Antitumor activity, intraperitoneal sarcoma 180, 9 consecutive days, life span", "type": "in vivo", "settings": "25 mg/kg i.p., 4×10^5 sarcoma 180 cells i.p., ICR mice", "experimental": "Antitumor activity of 1,3-diheptyloxypropane-2-yl 2-trimethylammonioethyl phosphate (Example 10)\nSarcoma 180 cells (4×10^5 cells per mouse) were transplanted intraperitoneally to ICR mice (a group consisting of 5 mice). The compound of Example 10 was administered intraperitoneally to the mice at the single dose rate of 25 mg/kg for 9 consecutive days from the day following transplantation."}, "[20]": {"settings": "rat, in vivo, iv", "method": "Male 7-week aged Sprague-Dawley rats (weighing 200 to 290 g) were anesthetized by intraperitoneal administration of 60 mg/kg of pentobarbital sodium, and the left carotids (for the measurement of blood pressure) and left femoral veins (for the intravenous administration) were cannulated."}, "[21]": {"system": "platelet", "settings": "Biochemical and Biophysical Research Communications, 99, 183 (1981); cited from earlier work"}}}
{"smiles": "CCCCCCCCOCC(COP(=O)([O-])OCC[N+](C)(C)C)OCCCCCCCC", "note": "(stereo not drawn) [2,3-dioctyloxypropyl 2-trimethylammonioethyl phosphate, reference compound]", "values": [{"measurement": "rate of life prolongation against the control group", "setting": "[1]", "value": 195}]}
{"smiles": "CCCCCCCCOCC(COCCCCCCCC)OP(=O)([O-])OCC[N+](C)(C)C", "note": "[Example 1, 1,3-Dioctyloxypropane-2-yl 2-trimethylammonioethyl phosphate]", "values": [{"measurement": "rate of life span prolongation against the control group (T/C)", "setting": "[2]", "value": 225}, {"measurement": "rate of life prolongation against the control group", "setting": "[1]", "value": 458}, {"measurement": "mice survived 60 days", "setting": "[1]; group of 5 mice, 1 mg/mouse i.p., sarcoma 180 i.p.", "value": "two"}, {"measurement": "growth inhibition rate of tumor", "setting": "[3]", "value": 54, "unit": "%"}, {"measurement": "growth inhibition rate of tumor", "setting": "[4]", "value": 52, "unit": "%"}, {"measurement": "MIC", "setting": "[5]", "value": 6.25, "unit": "µg/mL"}, {"measurement": "MIC", "setting": "[6]", "value": 3.12, "unit": "µg/mL"}, {"measurement": "MIC", "setting": "[7]", "value": 6.25, "unit": "µg/mL"}, {"measurement": "MIC", "setting": "[8]", "value": 6.25, "unit": "µg/mL"}, {"measurement": "MIC", "setting": "[9]", "value": 6.25, "unit": "µg/mL"}, {"measurement": "MIC", "setting": "[10]", "value": 3.12, "unit": "µg/mL"}, {"measurement": "MIC", "setting": "[11]", "value": 3.12, "unit": "µg/mL"}, {"measurement": "MIC", "setting": "[12]", "value": 12.5, "unit": "µg/mL"}, {"measurement": "MIC", "setting": "[13]", "value": 12.5, "unit": "µg/mL"}, {"measurement": "MIC", "setting": "[14]", "value": 25, "unit": "µg/mL"}]}
{"smiles": "CCCCCCCCOCC(COCCCCCCCC)OP(=O)([O-])OCC[n+]1ccsc1", "note": "[Example 3, 1,3-Dioctyloxypropane-2-yl 2-thiazolioethyl phosphate]", "values": [{"measurement": "growth inhibition rate of tumor", "setting": "[15]", "value": 83, "unit": "%"}]}
{"smiles": "CCCCCCCCCOCC(COCCCCCCCCC)OP(=O)([O-])OCC[N+](C)(C)C", "note": "[Example 9, 1,3-Dinonyloxypropane-2-yl 2-trimethylammonioethyl phosphate]", "values": [{"measurement": "growth inhibition rate of tumor", "setting": "[16]", "value": 76, "unit": "%"}, {"measurement": "life span prolonging ratio as compared with the control", "setting": "[17]; 0.33 mg/mouse three times (hour 1, day 1, day 2), 1×10^5 sarcoma 180 cells i.p., ICR mice", "value": 198}, {"measurement": "animal survived on day 60", "setting": "[17]; 5 animals per group, 0.33 mg/mouse three times, sarcoma 180 i.p.", "value": 1, "unit": "animal"}, {"measurement": "animals survived on day 60", "setting": "[18]", "value": 3, "unit": "animals"}]}
{"smiles": "CCCCCCCOCC(COCCCCCCC)OP(=O)([O-])OCC[N+](C)(C)C", "note": "[Example 10, 1,3-Diheptyloxypropane-2-yl 2-trimethylammonioethyl phosphate]", "values": [{"measurement": "rate of life span prolongation against the control group (T/C)", "setting": "[19]", "value": 295}]}
{"smiles": "CCCCCCCCCCCCCCCCCCOCC(COP(=O)([O-])OCC[N+](C)(C)C)OC", "note": "(stereo not drawn) [compound (XI)]", "values": [{"measurement": "blood pressure lowering action (in words)", "setting": "[20]", "value": "possesses blood-pressure lowering action"}, {"measurement": "platelet aggregating action", "setting": "[21]", "value": "has platelet aggregating action"}]}
